k = constrained ethyl (cEt); d = 2'-deoxy (DNA)
Tests used:
[1] = Liver transaminase levels (ALT, AST) in serum, Example 3; type: in vivo; conditions: mice serum
Description: (§1) Each treatment group consisted of 4 animals.

[2] = system: mouse Metastasis associated lung adenocarcinoma transcript 1 (Malat-1); test: In vivo dose response of Isis No. 556062 with and without FTY-720 pre-treatment (Malat-1 RNA, Example 3); conditions: mice, Liver
Method: as §1
Malat-1 RNA levels were determined as described in Example 2. The results are presented in Table 18 as average Malat-1 RNA levels for each treatment group. Results for groups that received Isis No. 556062 alone are relative the group that received only PBS, and results for groups that received Isis No. 556062 and 1 mg/kg FTY-720 are relative to the group that received 1 mg/kg FTY-720 and PBS in place of Isis No. 556062.

[3] = 0.3 mg/kg 556062 subcutaneous, FTY-720 dose 0 mg/kg
[4] = 0.3 mg/kg 556062 subcutaneous, FTY-720 dose 1 mg/kg
[5] = 1 mg/kg 556062 subcutaneous, FTY-720 dose 0 mg/kg
[6] = 1 mg/kg 556062 subcutaneous, FTY-720 dose 1 mg/kg
[7] = 3 mg/kg 556062 subcutaneous, FTY-720 dose 0 mg/kg
[8] = 3 mg/kg 556062 subcutaneous, FTY-720 dose 1 mg/kg
[9] = 9 mg/kg 556062 subcutaneous, FTY-720 dose 0 mg/kg
[10] = 9 mg/kg 556062 subcutaneous, FTY-720 dose 1 mg/kg

Work on “556062 (antisense GGCTTAATGCAGCATT; sugars from the 5' end k3 d10 k3, all phosphorothioate, methylation of C not given here) [compound 556062]” yielded an ALT [1, 3] of 24 U/L, an AST [1, 3] of 48 U/L and an ALT [1, 4] of 17 U/L. It also gave an AST [1, 4] of 48 U/L, an ALT [1, 5] of 56 U/L and an AST [1, 5] of 50 U/L. The ALT [1, 6] was 18 U/L, the AST [1, 6] was 45 U/L and the ALT [1, 7] was 24 U/L. For the same substance, the AST [1, 7] was 58 U/L, the ALT [1, 8] was 25 U/L and the AST [1, 8] was 40 U/L. The ALT [1, 9] was 31 U/L, the AST [1, 9] was 71 U/L and the ALT [1, 10] was 24 U/L. For the same substance, the AST [1, 10] was 46 U/L, the “Average Malat-1 RNA” value [2, 3] was 80 % control and the “Average Malat-1 RNA” value ([2]; 0.3 mg/kg 556062 subcutaneous, FTY-720 dose 1 mg/kg i.p. daily) was 63 % control. The “Average Malat-1 RNA” value [2, 5] was 49 % control, the “Average Malat-1 RNA” value ([2]; 1 mg/kg 556062 subcutaneous, FTY-720 dose 1 mg/kg i.p. daily) was 36 % control and the “Average Malat-1 RNA” value [2, 7] was 18 % control. The “Average Malat-1 RNA” value ([2]; 3 mg/kg 556062 subcutaneous, FTY-720 dose 1 mg/kg i.p. daily) was 19 % control, the “Average Malat-1 RNA” value [2, 9] was 11 % control and the “Average Malat-1 RNA” value ([2]; 9 mg/kg 556062 subcutaneous, FTY-720 dose 1 mg/kg i.p. daily) was 6 % control.
